According to patent US11285226B2, “Aryl ethene derivative and pharmaceutical composition containing same as active ingredient” (priority 2016, dated 2022):

How the values were obtained:
[1] = target: ERR gamma ligand-binding domain (LBD) (Homo sapiens (Human), UniProt P62508); test: ERRγ binding assay (inverse agonist assay), TR-FRET
Description: 1) ERRγ Binding Assay (Inverse Agonist Assay)
(§3) The arylethene derivative of the present invention was sequentially added to a 384 well plate from a concentration of 10 μM to a final concentration of two-fold dilution. […] After all reagents were added, a reaction was carried out with gentle shaking at 20° C. for 1 hour, and after the reaction, a binding activity was measured by a TR-FRET method.

ERR alpha LBD = ERR alpha LBD (Homo sapiens (Human), UniProt P11474); details: read-out: Binding Assay, IC50 ERRα
Description: as §3

[2] = target: ER alpha ligand-binding domain (LBD) (Homo sapiens (Human), UniProt P03372); details: beta-estradiol 4 nM as agonist; read-out: Binding Assay, IC50 ERα
ER alpha ligand-binding domain (LBD), sequence (P03372 whole entry, looked up, the tested form may be a part): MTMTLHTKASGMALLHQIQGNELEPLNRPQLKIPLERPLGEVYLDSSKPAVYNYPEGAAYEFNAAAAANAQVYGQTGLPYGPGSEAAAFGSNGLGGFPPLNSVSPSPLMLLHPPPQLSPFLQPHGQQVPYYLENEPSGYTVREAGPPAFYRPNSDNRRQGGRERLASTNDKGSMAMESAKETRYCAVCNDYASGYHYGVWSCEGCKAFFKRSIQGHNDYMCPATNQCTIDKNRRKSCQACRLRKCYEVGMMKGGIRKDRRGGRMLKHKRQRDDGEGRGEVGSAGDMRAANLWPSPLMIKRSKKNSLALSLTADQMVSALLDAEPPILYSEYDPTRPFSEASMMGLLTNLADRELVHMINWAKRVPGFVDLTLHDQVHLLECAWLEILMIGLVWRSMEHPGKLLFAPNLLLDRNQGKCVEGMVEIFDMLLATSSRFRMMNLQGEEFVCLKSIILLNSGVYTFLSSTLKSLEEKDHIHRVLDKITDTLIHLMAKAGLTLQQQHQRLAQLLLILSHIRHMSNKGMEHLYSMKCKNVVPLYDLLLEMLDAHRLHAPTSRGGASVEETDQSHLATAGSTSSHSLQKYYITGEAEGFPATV
Description: as §3

CYP1A2 = CYP1A2 (Homo sapiens (Human), UniProt P05177); test: Cytochrome P450 activity inhibition, CYP1A2; format: in vitro ADME; details: 10 μM, human liver microsomes
CYP1A2, sequence (P05177 whole entry): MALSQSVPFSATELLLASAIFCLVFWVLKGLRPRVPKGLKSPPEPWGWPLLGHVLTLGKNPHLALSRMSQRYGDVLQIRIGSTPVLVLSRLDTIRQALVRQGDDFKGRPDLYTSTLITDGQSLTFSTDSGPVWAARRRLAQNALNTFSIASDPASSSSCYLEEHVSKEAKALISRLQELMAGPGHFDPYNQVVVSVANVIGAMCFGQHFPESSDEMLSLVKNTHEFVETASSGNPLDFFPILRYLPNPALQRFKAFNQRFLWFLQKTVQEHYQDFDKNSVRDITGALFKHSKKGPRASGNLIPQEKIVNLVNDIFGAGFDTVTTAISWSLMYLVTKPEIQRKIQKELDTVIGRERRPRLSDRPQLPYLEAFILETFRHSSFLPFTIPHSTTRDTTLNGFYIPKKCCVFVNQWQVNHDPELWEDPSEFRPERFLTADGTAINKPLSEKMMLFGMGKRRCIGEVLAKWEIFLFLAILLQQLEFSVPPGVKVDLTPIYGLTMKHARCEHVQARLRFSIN
Source text: (§1) 1) Cytochrome P450 (CYP450) Activity Inhibition Evaluation

CYP2C9 = CYP2C9 (Homo sapiens (Human), UniProt P11712); test: Cytochrome P450 activity inhibition, CYP2C9; format: in vitro ADME; details: 10 μM, human liver microsomes
CYP2C9, sequence (P11712 whole entry): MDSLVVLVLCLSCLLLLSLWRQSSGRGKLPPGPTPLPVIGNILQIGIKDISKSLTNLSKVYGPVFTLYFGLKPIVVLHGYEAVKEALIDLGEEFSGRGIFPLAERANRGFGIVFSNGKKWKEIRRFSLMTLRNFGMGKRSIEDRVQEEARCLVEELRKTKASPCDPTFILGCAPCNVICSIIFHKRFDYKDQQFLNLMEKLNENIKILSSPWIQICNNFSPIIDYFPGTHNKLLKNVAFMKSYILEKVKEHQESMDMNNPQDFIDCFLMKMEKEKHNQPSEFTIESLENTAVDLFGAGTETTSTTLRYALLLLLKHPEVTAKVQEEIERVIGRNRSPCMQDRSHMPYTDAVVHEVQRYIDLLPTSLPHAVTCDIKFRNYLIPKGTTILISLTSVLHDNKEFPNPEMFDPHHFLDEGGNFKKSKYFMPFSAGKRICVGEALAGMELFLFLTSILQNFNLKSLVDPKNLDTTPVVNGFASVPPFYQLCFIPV
Source text: as §1

CYP2C19 = CYP2C19 (Homo sapiens (Human), UniProt P33261); test: Cytochrome P450 activity inhibition, CYP2C19; format: in vitro ADME; details: 10 μM, human liver microsomes
CYP2C19, sequence (P33261 whole entry): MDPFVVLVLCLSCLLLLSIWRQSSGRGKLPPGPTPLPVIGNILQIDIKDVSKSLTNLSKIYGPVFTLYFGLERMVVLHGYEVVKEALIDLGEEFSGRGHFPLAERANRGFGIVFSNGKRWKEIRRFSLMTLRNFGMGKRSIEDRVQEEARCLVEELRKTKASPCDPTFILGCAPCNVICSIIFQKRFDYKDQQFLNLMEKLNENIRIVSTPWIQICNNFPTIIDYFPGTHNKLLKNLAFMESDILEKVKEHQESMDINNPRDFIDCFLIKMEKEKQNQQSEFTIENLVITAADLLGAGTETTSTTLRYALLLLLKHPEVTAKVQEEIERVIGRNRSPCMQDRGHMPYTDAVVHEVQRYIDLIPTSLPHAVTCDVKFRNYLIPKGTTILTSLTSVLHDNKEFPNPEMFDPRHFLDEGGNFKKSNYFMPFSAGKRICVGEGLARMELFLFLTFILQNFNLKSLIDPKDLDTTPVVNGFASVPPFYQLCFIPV
Source text: as §1

CYP2D6 = CYP2D6 (Homo sapiens (Human), UniProt P10635); test: Cytochrome P450 activity inhibition, CYP2D6; format: in vitro ADME; details: 10 μM, human liver microsomes
CYP2D6, sequence (P10635 whole entry): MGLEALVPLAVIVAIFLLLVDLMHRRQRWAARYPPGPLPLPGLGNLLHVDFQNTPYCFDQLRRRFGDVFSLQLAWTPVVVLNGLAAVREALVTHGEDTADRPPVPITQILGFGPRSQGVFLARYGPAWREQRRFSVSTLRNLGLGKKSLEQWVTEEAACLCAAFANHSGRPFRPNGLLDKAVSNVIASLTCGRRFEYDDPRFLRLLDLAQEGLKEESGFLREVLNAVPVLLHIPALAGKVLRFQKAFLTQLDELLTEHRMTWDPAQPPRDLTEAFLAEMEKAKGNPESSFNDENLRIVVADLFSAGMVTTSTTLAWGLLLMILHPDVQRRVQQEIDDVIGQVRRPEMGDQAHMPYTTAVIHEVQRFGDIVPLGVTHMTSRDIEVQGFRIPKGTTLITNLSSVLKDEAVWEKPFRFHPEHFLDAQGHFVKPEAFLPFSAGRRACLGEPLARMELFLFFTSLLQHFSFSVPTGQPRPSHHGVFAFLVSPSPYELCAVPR
Source text: as §1

CYP3A4 = CYP3A4 (Homo sapiens (Human), UniProt P08684); test: Cytochrome P450 activity inhibition, CYP3A4; format: in vitro ADME; details: 10 μM, human liver microsomes
CYP3A4, sequence (P08684 whole entry): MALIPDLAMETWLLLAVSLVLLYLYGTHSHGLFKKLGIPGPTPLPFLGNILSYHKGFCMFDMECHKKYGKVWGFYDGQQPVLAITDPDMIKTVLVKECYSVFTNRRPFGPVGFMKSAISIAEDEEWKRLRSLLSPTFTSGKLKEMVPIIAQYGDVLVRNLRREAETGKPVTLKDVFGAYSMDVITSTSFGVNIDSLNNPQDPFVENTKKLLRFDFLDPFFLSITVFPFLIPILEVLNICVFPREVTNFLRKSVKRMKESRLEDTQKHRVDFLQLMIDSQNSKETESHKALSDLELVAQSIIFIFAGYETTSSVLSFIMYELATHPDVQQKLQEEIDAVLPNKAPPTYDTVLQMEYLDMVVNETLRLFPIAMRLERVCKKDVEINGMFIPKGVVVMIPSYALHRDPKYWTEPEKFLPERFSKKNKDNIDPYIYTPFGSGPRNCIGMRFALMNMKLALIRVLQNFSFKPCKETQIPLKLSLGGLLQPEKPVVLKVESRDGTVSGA
Description: Thereafter, in order to complete the reaction, an acetonitrile solution containing an internal standard material (Terfenadine) was added thereto, centrifugation (14,000 rpm, 4° C.) was performed for 5 minutes, and a supernatant was injected into a LC-MS/MS system to analyze the metabolites of the substrate drug, thereby evaluating drug metabolism enzyme inhibition by the arylethene derivative of the present invention.

[3] = format: in vitro ADME, human; details: 1 μM, 30 minutes, 37° C.
Description: 2) Microsomal Stability Evaluation
(§4) Four liver microsomes (Human, Dog, Rat, Mouse 0.5 mg/ml) with a 0.1 M phosphate buffer solution (pH 7.4), and the arylethene derivative of the present invention were added to a concentration of 1 μM, culturing was performed at 37° C. for 5 minutes in advance, a NADPH regeneration system solution was added thereto, and culturing was performed at 37° C. for 30 minutes. Thereafter, in order to complete the reaction, an acetonitrile solution containing an internal standard material (chlorpropamide) was added thereto, centrifugation (14,000 rpm, 4° C.) was performed for 5 minutes, and a supernatant was injected into a LC-MS/MS system to analyze the substrate drug, thereby evaluating metabolism stability to the arylethene derivative of the present invention.

[4] = format: in vitro ADME, dog; details: 1 μM, 30 minutes, 37° C.
Description: 2) Microsomal Stability Evaluation
as §4

[5] = format: in vitro ADME, rat; details: 1 μM, 30 minutes, 37° C.
Description: 2) Microsomal Stability Evaluation
as §4

[6] = format: in vitro ADME, mouse; details: 1 μM, 30 minutes, 37° C.
Description: 2) Microsomal Stability Evaluation
as §4

[7] = format: in vitro ADME; details: PBS pH 7.4, 25° C., 5 hours
Description: 3) Parallel Artificial Membrane Permeability Assay (PAMPA) Evaluation
PAMPA is a method which has been developed for testing cell membrane permeability of a material in a test tube, and has been performed using a lipid tri-layer PVDF membrane available from Corning Gentest (NY, US), the used reagents were all purchased from Sigma (MO, US). First, a test material is diluted in PBS (pH 7.4) to a final concentration of 10 mM, 300 mL of the solution is added to the bottom well of a 96-transwell equipped with a PVDF membrane, and 200 mL of PBS is added to the upper well. Then, a plate is reacted at 25° C. for 5 hours, 20 mL of the solution in each well is transferred to a new container, and 80 mL of acetonitrile containing an internal standard material (4 mM chloropropamide) is added thereto. A concentration of the material in the solution is analyzed using LC-MS/MS (ThermoFisher Scientific, MO, US), and the transmittance of the material is calculated according to the equation reported in the reference document. • Reference document: A novel design of artificial membrane for improving the PAMPA model.

CAL-62 cells = test: 125I uptake assay in anaplastic thyroid cancer cells; format: cell-based
ERRγ mRNA in CAL62 cells = test: Quantitative RT-PCR, ERRγ mRNA; format: cell-based
Description: (§2) Total RNA was separated using Trizol (Invitrogen, Carlsbad, Calif.). Total RNA (2 ug) was reverse-transcribed into cDNA with RevertAid First Strand cDNA Synthesis Kit (Thermo Scientific, Pittsburgh, Pa.). Genes were amplified with a ViiA 7 Real-Time PCR System instrument (Applied Biosystems) using the primer of each target gene and YBR Green PCR master mix (Applied Biosystems, Foster City, Calif.), using a cDNA template. The primer sequence of each target gene is as follows: ERRγ (forward, 5′-CAG ACG CCA GTG GGA GCT A-3′; reverse, 5′-TGGCGAGTCAAGTCCGTTCT-3′), NIS (forward, 5′-TCTAACCGATGCTCACCTCTTCTG-3′; reverse, 5′-AGATGATGGCACCTCCTTGAACC-3′), and acidic ribosomal protein 36B4 (forward, 5′-CCA CGC TGC TGA ACA TGC T-3′; reverse, 5′-TCGAACACCTGCTGGATGAC-3′). Each target gene was normalized using a 36B4 gene.

NIS mRNA in CAL62 cells = test: Quantitative RT-PCR, NIS mRNA; format: cell-based
Description: as §2

[8] = system: ERRγ protein in CAL62 cells; test: Western blot, ERRγ protein; format: cell-based
[9] = system: NIS protein in CAL62 cells; test: Western blot, total and membrane-localized NIS protein; format: cell-based, human
CAL62 cells = test: Clonogenic assay with 131I; format: cell-based; details: alone
Description: The cells were plated in a 6-well plate, and allowed to stand for 24 hours. […] The cells were washed with cold bHBSS, and allowed to stand in a normalized culture medium for a time corresponding to six doublings. Finally, the cells were fixed in a 4% paraformaldehyde (PFA) solution and stained with 0.05% crystal violet.

[10] = system: CAL-62/effluc mouse tumor model; test: Bio-distribution study, 125I uptake in CAL-62/effluc tumor; format: in vivo
Description: Nude mice (Balb/c nu/nu, female, 6 weeks old) were used, and all animals were normally raised in DMRC center animal laboratory of Kyungbuk National University Hospital in Chilgok. 5×10^6 CAL-62/effluc cells were subcutaneously injected into the left femoral region of the nude mouse to form a tumor. The tumor was extracted, divided into small pieces (20 mg or more), and then intradermally injected into the nude mouse to form a tumor.
After 4 hours of administration, all organs including a parent tumor were extracted, and each organ was weighed. Thereafter, each organ was transferred to a 5 mL test tube, and radioactivity in the organ was measured using a gamma counter.

[11] = Weight change of mice during administration; details: all groups
ERRβ = ERRβ (Homo sapiens, UniProt O95718); test: ERRβ binding assay (selectivity test), TR-FRET
Description: as §3

ERRγ = format: cell-based
Description: AD293 was cultured in a 24-well plate for 24 hours, using a DMEM High glucose culture medium (Hyclone, USA) to which 0.5% FBS was added at a concentration of 9×10^4/well. The culture medium was replaced with a DMEM High glucose culture medium to which 10% FBS was added, treatment was performed with a mixture of a TransIT-LT1 transfection reagent (Minis, USA) and pCMX-Gal4-ERRγ, pFR-luciferase reporter plasmid, pCMV-β-gal, and culturing was performed for 24 hours. Thereafter, a luciferase activity assay and a β-gal assay were performed, respectively, with a lysate obtained after treatment with the arylethene derivative of the present invention for 24 hours. All results were derived from three or more independent repetitive experiments.

ERR alpha LBD, sequence (P11474 193-421, species assumed): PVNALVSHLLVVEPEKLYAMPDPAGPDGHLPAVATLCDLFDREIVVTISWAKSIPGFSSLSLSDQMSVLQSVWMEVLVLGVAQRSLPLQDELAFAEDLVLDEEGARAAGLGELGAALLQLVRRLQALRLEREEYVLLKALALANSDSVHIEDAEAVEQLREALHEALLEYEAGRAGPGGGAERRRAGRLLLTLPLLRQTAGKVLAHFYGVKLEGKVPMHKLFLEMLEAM
ERR gamma ligand-binding domain (LBD), sequence (P62508 233-457): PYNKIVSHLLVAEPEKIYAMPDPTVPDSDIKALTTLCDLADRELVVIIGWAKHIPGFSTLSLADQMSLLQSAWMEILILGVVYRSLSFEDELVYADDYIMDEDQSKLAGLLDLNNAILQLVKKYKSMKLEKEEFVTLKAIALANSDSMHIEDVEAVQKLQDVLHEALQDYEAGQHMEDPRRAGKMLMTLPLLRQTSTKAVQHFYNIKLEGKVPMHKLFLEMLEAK

SMILES | IC50 (ERR alpha LBD) | IC50 [2] | CYP inhibition (% of control) 1A2 (CYP1A2) | CYP inhibition (% of control) 2C9 (CYP2C9) | CYP inhibition (% of control) 2C19 (CYP2C19) | CYP inhibition (% of control) 2D6 (CYP2D6) | CYP inhibition (% of control) 3A4 (CYP3A4) | MS (Microsomal Stability) (%) human [3] | MS (Microsomal Stability) (%) dog [4] | MS (Microsomal Stability) (%) rat [5] | MS (Microsomal Stability) (%) mouse [6] | also measured
OCCC/C(=C(\c1ccc(O)cc1)c1ccc(C2CCN(C3CCCCC3)CC2)cc1)c1ccccc1 [Compound 22p] | 9700 nM | 2120 nM | 88.1 % of control | 81.8 % of control | 61.5 % of control | 79.6 % of control | 90.6 % of control | 72.3% | 77.7% | 75.3% | 40.4% | IC50 [1]: 99 nM; Permeability Pampa [7]: 0.2 10^−6 cm/s
CC(C)N1CCN(c2ccc(C(=C(CCCO)c3ccccc3)c3ccc(O)cc3)cc2)CC1 [Compound 18a] |  |  | 88 % of control |  |  |  |  |  |  |  |  | concentration of maximum increase of iodine uptake (CAL-62 cells; CAL62 cells): 12 µM; radioactive iodine uptake in CAL62 cells (CAL-62 cells; for each concentration and each time): significant increase; ERRγ mRNA expression, decrease vs vehicle treated group (ERRγ mRNA in CAL62 cells): about 16 times; NIS mRNA expression, increase vs vehicle-treated group (NIS mRNA in CAL62 cells): about 2 times; ERRγ protein expression, decrease vs vehicle treated group [8]: about 2.8 times; increase in membrane fully glycosylated NIS protein [9]: 8.1 times; increase in membrane partially glycosylated NIS protein [9]: 6.4 times; total NIS protein expression, change vs vehicle treated group ([9]; text says significantly increased, then decreased): about 1.9 times; cytotoxic effect in clone formation assay (CAL62 cells): minimal cytotoxic effect; radioactive uptake in CAL62 tumor, increase vs vehicle group ([10]; 100 mpk orally daily for 6 days): 4.4 times; radioactive uptake in CAL62 tumor, increase vs vehicle group ([10]; 200 mpk orally daily for 6 days): 16.2 times; weight change in the mice [11]: abrupt weight change in the mice was not shown
OCCC/C(=C(\c1ccc(O)cc1)c1ccc(C2CCNCC2)cc1)c1ccccc1 [Compound 20j] | > 10000 nM | 992 nM | 93.6 % of control | 77.1 % of control | 62 % of control | 89.3 % of control | 66.2 % of control | 76.8% | 68.3% | 84.5% | 25.3% | IC50 (ERRβ): 4930 nM; Functional Assay at 10 μM (% of control), Cpds (ERRγ; 10 μM, AD293, 24 hours): 1.41 % of control; Functional Assay, Cpds/Ref 5182 (ERRγ; activity relative to reference compound GSK5182): 1.38
